18 compounds from PubChem BioAssay (NCI) can be followed below.

What all share (assay): NCI anticancer screen, dose series, 48 h
Assay [1] has as its system NCI-H23 lung.
The test system of assay [2] is IGROV1 ovarian.
Assay [3] has as its system UACC-257 melanoma.
Assay [4] relates to SF-539 CNS.
Assay [5] relates to MOLT-4 leukemia.
Assay [6] concerns SK-MEL-28 melanoma.
Assay [7] relates to HT29 colon.
Assay [8] deals with K-562 leukemia.
In assay [9] the test system is U251 CNS.
Assay [10] deals with UACC-62 melanoma.

“And” between values parts separate entries of the source, which are not always exact repeats. Equal values may be shown once.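 Where inhibition never reached the appropriate level, the endpoint shown equals the highest concentration tested. Otherwise, values were interpolated linearly from a five-concentration, 48-hour dose response in 96-well plates. GI50 is the concentration that inhibits growth by half. The concentration for full growth arrest is given as TGI.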

For the compound `O=C(N[C@@H](c1ccc(Cl)c(Cl)c1)C1CNC1)c1ccc2cnccc2c1`, the GI50 was 0.336 µM in assay [1]; 0.0324 µM in assay [2]; 0.49 µM in assay [3]; 0.0408 µM in [4]; 0.106 µM in assay [5]; 0.301 µM in [6]. Besides, the GI50 was 0.206 µM in [7], 3.2 µM in [8], 0.475 µM in assay [9] and 0.171 µM in [10]. Further, the TGI in assay [1] amounted to 10.8 µM; in assay [2], 4.69 µM; in assay [3] it was 4.84 µM; in [4], 0.798 µM; in assay [5] it was 6.18 µM; in assay [6], 3.43 µM. Also, the TGI in [7] is 12.1 µM; in [8], greater than 40.3 µM; in [9] it was 4.26 µM; in [10], 0.866 µM.

For `COc1cc(Cn2c(-c3ccccc3)c(Cl)c3c2-c2oncc2CC3)cc(OC)c1`, the GI50 in assay [1] is 6.15 µM; in assay [2] it was 4.89 µM; in assay [3], 39.3 µM; in assay [4], 8.19 µM; in assay [5], 3.43 µM; in assay [6], 8.52 µM. Also, the GI50 in assay [7] was 3.71 µM; in assay [8] it was 3.08 µM; in assay [9] it was 6.2 µM; in assay [10] it was 3.84 µM. The TGI in assay [1] was greater than 100 µM; in [2], 21.7 µM; in assay [3], greater than 100 µM; in assay [4] it was 70.9 µM; in assay [5] it was greater than 100 µM; in assay [6], greater than 100 µM. In addition, the TGI is greater than 100 µM in assay [7], greater than 100 µM in [8], greater than 100 µM in assay [9] and 31.3 µM in [10].

Consider `Cc1nn(-c2ccc(Cl)cc2)c2nc3c(nc12)C(=O)c1ccccc1-3`, for which the GI50 in assay [1], in [2], in assay [3], in [4], in assay [5] and in assay [6] was greater than 100 µM throughout. Further, the GI50 in assay [7], in [8], in [9] and in assay [10] was greater than 100 µM each time. Besides, the TGI in [1], in assay [2], in [3], in assay [4], in assay [5] and in assay [6] was greater than 100 µM each time. The TGI in assay [7], in assay [8], in assay [9] and in [10] was greater than 100 µM throughout.

Turning to `COc1ccc(C(=O)/C=C/c2cc(-c3cc(OC)c(OC)c(OC)c3)n[nH]2)cc1OC`, the GI50 in assay [1] is 2.15 µM; in assay [2] it was 1.8 µM; in [3], 1.49 µM; in [4], 1.27 µM; in assay [5] it was 2.11 µM; in assay [6] it was 1.78 µM. For the same compound, the GI50 in assay [7] was 1.62 µM; in assay [8] it was 1.91 µM; in assay [9], 1.23 µM; in [10] it was 1.74 µM. Moreover, the TGI came to 5.24 µM in assay [1]; 3.41 µM in assay [2]; 2.83 µM in assay [3]; 2.6 µM in [4]; 5.56 µM in assay [5]; 3.34 µM in assay [6]. The TGI in assay [7] turned out to be 3.05 µM; in assay [8], 7.12 µM; in assay [9], 2.48 µM; in assay [10], 3.22 µM.

Take `C=C(Cl)C(Br)(CCl)CCC(Br)C(C)(C)Cl` (centres undefined): the GI50 in assay [1] is 2.46 µM; in [2] it was 2.13 µM; in assay [4] it was 1.98 µM; in assay [6], 5.88 µM; in assay [8], 7.84 µM; in [9] it was 2.74 µM. Also, the GI50 in [10] was 2.17 µM. The TGI was 5.57 µM in [1]; 4.16 µM in assay [2]; 7.78 µM and 8.58 µM in assay [3]; 3.86 µM in [4]; 8.82 µM in [5]; 14.2 µM in assay [6]. For the same compound, the TGI in assay [7] is 4.23 µM; in assay [8], 9.43 µM and 40.4 µM; in assay [9], 6.93 µM; in assay [10] it was 6.83 µM.

Take `COc1cc2c3c(n(C)c(=O)c2cc1OC)-c1cc2c(cc1/C3=C\CN)OCO2`: the GI50 in assay [1] was 0.249 µM; in [2] it was 1.35 µM; in assay [3], 1.44 µM; in [4], 0.227 µM; in assay [5], less than 0.0208 µM; in assay [6] it was 7.38 µM. The GI50 was 0.192 µM in assay [7], 0.106 µM in assay [8], 0.0395 µM in assay [9] and 0.0731 µM in [10]. In addition, the TGI in assay [1] was 8.77 µM; in assay [2] it was greater than 100 µM; in assay [3], 20.4 µM; in assay [5] it was 0.433 µM; in assay [6], greater than 48.5 µM; in [7] it was 24.8 µM. Also, the TGI in assay [9] was determined as 3.31 µM.

On to `CCC(C)COC(=O)c1ccc(N=Cc2ccc(C=Nc3ccc(C(=O)OCC(C)CC)cc3)cc2)cc1` (centres undefined), for which the TGI in assay [1], in [2], in [3], in assay [4], in [5] and in assay [6] was greater than 100 µM each time. Also, the TGI in assay [7], in [8], in assay [9] and in assay [10] was greater than 100 µM in each case.

On to `CCOC(=O)Nc1ccc(C)c(NC(=O)OCC)c1`, for which the TGI in assay [1], in [2], in assay [3], in assay [4], in [5] and in assay [6] was greater than 100 µM throughout. The TGI in [7], in assay [8], in assay [9] and in assay [10] was greater than 100 µM in each case.

Regarding `CCOC(=O)Nc1ccc(-c2nc(-c3cccc(OCCN4CCOCC4)c3)c(-c3ccnc(Br)c3)[nH]2)cc1`, the GI50 is 2.19 µM in assay [1]; 3.65 µM in assay [2]; 2.21 µM in assay [3]; 2.08 µM in assay [4]; 2.23 µM in [5]; 1.78 µM in [6]. In addition, the GI50 in [7] is 2.9 µM; in assay [8] it was 2.53 µM; in assay [9], 2.75 µM; in assay [10] it was 2.26 µM. The TGI in assay [1] was 5.6 µM; in assay [2] it was greater than 100 µM; in assay [3], 5.24 µM; in assay [4], 7.48 µM; in assay [5] it was greater than 100 µM; in [6], 3.75 µM. Besides, the TGI in assay [7] was greater than 100 µM; in assay [8], greater than 100 µM; in assay [9] it was greater than 100 µM; in assay [10], 7.14 µM.

For the compound `CC(C)Oc1ccc2cc(-c3nn(CC4CCNCC4)c4ncnc(N)c34)ccc2c1`, the GI50 in [1] is 11.3 µM; in assay [2] it was 11.1 µM; in assay [3], 1.95 µM; in assay [4], 12.3 µM; in [5], 1.97 µM; in assay [6], 2.14 µM. The GI50 was 2.78 µM in assay [7], 2.04 µM in [8], 9.02 µM in [9] and 6.41 µM in assay [10]. The TGI in assay [1] stood at 25.8 µM; in [2], 24.8 µM; in assay [3], 3.98 µM; in assay [4] it was 24.7 µM; in assay [5], 5.95 µM; in [6], 5.3 µM. Also, the TGI amounted to 12.2 µM in [7], 6.29 µM in [8], 21.7 µM in [9] and 20.4 µM in assay [10].

Consider `COc1c(OC[C@H](O)CN2CCOCC2)ccc2c3n(c(=NC(=O)c4cccnc4C)nc12)CCN3`, for which the GI50 is greater than 50 µM in [1]; 0.06 µM in assay [2]; 1.11 µM in [3]; 0.543 µM in assay [4]; 0.305 µM in [5]; 0.465 µM in assay [6]. In addition, the GI50 in assay [7] is 0.217 µM; in [8], greater than 50 µM; in [9], 2.58 µM; in assay [10] it was 0.33 µM. For the same compound, the TGI in [1] is greater than 50 µM; in assay [2] it was 0.343 µM; in [3], greater than 50 µM; in assay [4], 9.91 µM; in assay [5] it was greater than 50 µM; in [6], greater than 50 µM. Moreover, the TGI in [7], in assay [8], in assay [9] and in assay [10] was greater than 50 µM each time.

Turning to `COc1cc(-n2cc(-c3ccc(F)cc3)[nH]c2=O)cc(OC)c1OC`, the GI50 in [1], in [2], in [3], in [4], in assay [5] and in assay [6] was greater than 100 µM in each case. Further, the GI50 was greater than 100 µM in assay [7], greater than 100 µM in [8], 71.6 µM in assay [9] and greater than 100 µM in assay [10]. In addition, the TGI in assay [1], in [2], in [3], in assay [4], in assay [5] and in assay [6] was greater than 100 µM throughout. Moreover, the TGI in assay [7], in [8], in [9] and in assay [10] was greater than 100 µM throughout.

In the case of `Cc1ccccc1N1C(=O)C2C=CC(n3[nH]c(=O)n(Cc4ccccc4)c3=O)CC2C1=O` (centres undefined), the TGI in assay [1], in assay [2], in assay [3], in [4], in assay [5] and in assay [6] was greater than 100 µM in each case. For the same compound, the TGI in assay [7], in assay [8], in assay [9] and in assay [10] was greater than 100 µM each time.

Take `CCOc1ccccc1NC(=O)C(=O)CC(=O)c1sc(Nc2nnc(-c3ccc(Cl)c(Cl)c3)o2)nc1C`: the TGI in assay [1], in [2], in [3], in [4], in assay [5] and in assay [6] was greater than 100 µM in each case. For the same compound, the TGI in assay [7] was greater than 100 µM; in [8], greater than 100 µM; in assay [9], 41.4 µM; in assay [10] it was greater than 100 µM.

Take `CN1C(=O)N(C)C2C1NN=c1s/c(=C\c3ccc(Cl)cc3Cl)c(=O)n12` (centres undefined): the GI50 in assay [1] was 0.37 µM; in assay [2], 0.326 µM; in assay [3] it was 12.2 µM; in [4] it was 0.131 µM; in assay [5], 0.363 µM; in assay [6] it was 4.26 µM. Also, the GI50 in [7] was 0.117 µM; in assay [8], 0.0473 µM; in assay [9], 0.192 µM; in assay [10] it was 0.0709 µM. Also, the TGI in assay [1] is 52.9 µM; in [2], greater than 50.1 µM; in assay [3] it was greater than 100 µM; in [4], 3.25 µM; in [5], greater than 100 µM; in assay [6], greater than 94.6 µM. Further, the TGI in assay [7] was greater than 100 µM; in assay [8], greater than 50.7 µM; in [9] it was greater than 100 µM; in assay [10], greater than 65.2 µM.

For `C1CN2CCN3CCN4CCN1[P+]243`, the TGI in assay [1], in assay [2], in assay [3], in assay [4], in assay [5] and in assay [6] was greater than 100 µM throughout. Besides, the TGI in assay [7], in [8], in assay [9] and in assay [10] was greater than 100 µM in each case.

For the compound `CCN1CCC(O)(c2ccc(OC)cc2)C(C(=O)c2ccc(OC)cc2)C1` (centres undefined), the TGI in assay [1] was 35.3 µM; in [2], greater than 100 µM; in assay [3] it was 48 µM; in assay [4], 32.4 µM; in [5], greater than 100 µM; in assay [6], 10.6 µM. Besides, the TGI in assay [7] is 48.1 µM; in assay [8], greater than 100 µM; in assay [9], 30.5 µM; in assay [10], 32.2 µM.

In the case of `COc1cc2c(c(OC)c1OC)-c1ccc(SC)c(=O)cc1C(NC=O)CC2` (centres undefined), the TGI in assay [1] was 50 µM; in assay [2] it was greater than 85.5 µM; in assay [3], greater than 84.8 µM; in assay [4], less than 0.0464 µM; in assay [5], 48.9 µM; in assay [6], greater than 100 µM. For the same compound, the TGI in [7] is 1.1 µM; in [8] it was greater than 77.2 µM; in assay [9] it was 5.68 µM; in assay [10], greater than 100 µM.
